Source: ChEMBL document CHEMBL5137013 (Eur J Med Chem, 2022)
The source made the active and inactive calls. The rule behind the calls is not given here.

Legend:
HT-29 [1] = test: Induction of mitochondrial dysfunction in human HT-29 cells assessed as increase in green fluorescence intensity measured after 24 hrs by JC-1 staining based JC-1 dye based confocal laser scanning microscopy; format: functional, cell-based; details: dose 25-100 nM, DDE = dose-dependent effect
HUVEC = test: Antiangiogenic activity in HUVEC assessed as inhibition of tube formation at 12.5 to 50 nM incubated for 24 hrs by matrigel assay; format: functional, cell-based; details: Homo sapiens, dose 12.5-50 nM
Tubulin (Homo sapiens) [2] = target: T1, Tubulin (Homo sapiens) (UniProt P68371+Q9H4B7+P0DPH7+P68366+Q13509+Q71U36+P04350+Q3ZCM7+P07437+P68363+Q9BQE3+Q6PEY2+Q13885+Q9BVA1+Q9BUF5); test: Inhibition of tubulin polymerization in human HT-29 cells assessed as up regulation of detyrosinated-alpha-tubulin expression at 25 to 100 nM measured after 24 hrs by Western blot analysis; format: cell-based; details: dose 25-100 nM
HT-29 [3] = test: Inhibition of colony formation in human HT-29 cells at 12.5 nM measured after 24 hrs by crystal violet staining based assay; format: functional, cell-based
HT-29 [4] = test: Induction of ROS generation in human HT-29 cells measured after 24 hrs by DCFH-DA dye based confocal laser scanning microscopy; format: functional, cell-based; details: dose 25-100 nM, DDE = dose-dependent effect
HT-29 [5] = test: Cell cycle arrest in human HT-29 cells assessed as increase in cell accumulation at G2/M phase measured after 24 hrs by propidium iodide staining based flow cytometry; format: functional; details: dose 12.5-100 nM, DDE = dose-dependent effect
HT-29 [6] = test: Cytotoxicity against human HT-29 cells assessed as reduction in cell viability measured after 24 hrs by MTT assay; format: functional, cell-based; details: HT-29, 24 h
[7] = Half-life in Sprague-Dawley rat at 10 mg/kg, iv by HPLC-MS/MS analysis; format: ADME, organism-based; details: in vivo
HeLa = test: Cytotoxicity against human HeLa cells assessed as reduction in cell viability measured after 24 hrs by MTT assay; format: functional, cell-based
HT-29 [8] = test: Cell cycle arrest in human HT-29 cells assessed as effect on cdc2 expression at 25 to 100 nM measured after 24 hrs by Western blot analysis; format: functional, cell-based; details: dose 25-100 nM
HT-29 [9] = test: Cell cycle arrest in human HT-29 cells assessed as cell accumulation at G2/M phase at 100 nM measured after 24 hrs by propidium iodide staining based flow cytometry (reference value: 20.9%); format: functional
HT-29 [10] = test: Induction of apoptosis in human HT-29 cells assessed as down regulation of Bim expression at 25 to 100 nM measured after 24 hrs by Western blot analysis; format: functional, cell-based; details: dose 25-100 nM
HT-29 [11] = test: Induction of mitochondrial dysfunction in human HT-29 cells assessed as reduction in red fluorescence intensity measured after 24 hrs by JC-1 staining based JC-1 dye based confocal laser scanning microscopy; format: functional, cell-based; details: dose 25-100 nM, DDE = dose-dependent effect
[12] = Toxicity in human HT-29 cells xenografted BALB/c nude mouse assessed as effect on spleen at 5 to 10 mg/kg, ip administered as 2 days interval for 3 weeks and measured 3 weeks post-initial dosing by H and E staining based histopathological analysis; format: organism-based; details: in vivo, 504 h, dose 5-10 mg/kg
HT-29 [13] = test: Induction of apoptosis in human HT-29 cells assessed as increase in cleaved caspase-9 expression at 25 to 100 nM measured after 24 hrs by Western blot analysis; format: functional, cell-based; details: dose 25-100 nM
[14] = Cytotoxicity against human MCF7/TxR cells assessed as reduction in cell viability measured after 24 hrs by MTT assay; format: functional, cell-based
[15] = AUC in Sprague-Dawley rat at 10 mg/kg, iv by HPLC-MS/MS analysis; format: ADME, organism-based; set-up: dose 10 mg/kg, route iv; details: in vivo
[16] = Toxicity in human HT-29 cells xenografted BALB/c nude mouse assessed as effect on kidney at 5 to 10 mg/kg, ip administered as 2 days interval for 3 weeks and measured 3 weeks post-initial dosing by H and E staining based histopathological analysis; format: organism-based; details: in vivo, 504 h, dose 5-10 mg/kg
[17] = Toxicity in human HT-29 cells xenografted BALB/c nude mouse assessed as effect on heart at 5 to 10 mg/kg, ip administered as 2 days interval for 3 weeks and measured 3 weeks post-initial dosing by H and E staining based histopathological analysis; format: organism-based; details: in vivo, 504 h, dose 5-10 mg/kg
HT-29 [18] = test: Induction of apoptosis in human HT-29 cells assessed as up regulation of phosphorylated Bcl-2 expression at 25 to 100 nM measured after 24 hrs by Western blot analysis; format: functional, cell-based; details: dose 25-100 nM
HT-29 [19] = test: Antitumor activity against human HT-29 cells xenografted in BALB/c nude mouse assessed as reduction in tumor weight at 10 mg/kg, ip administered as 2 days interval for 3 weeks and measured 3 weeks post-initial dosing relative to control; format: functional; set-up: scale not given: the % may be the effect or the level left
HT-29 [20] = test: Antitumor activity against human HT-29 cells xenografted in ip dosed BALB/c nude mouse assessed as tumor growth inhibition administered at 2 days interval for 3 weeks; format: functional, organism-based; details: DDE = dose-dependent effect
Tubulin (Homo sapiens) [21] = target: T1, Tubulin (Homo sapiens); test: Inhibition of tubulin polymerization in human HT-29 cells assessed as up regulation of acetylated-alpha-tubulin expression at 25 to 100 nM measured after 24 hrs by Western blot analysis; format: cell-based; details: dose 25-100 nM
HT-29 [22] = test: Induction of apoptosis in human HT-29 cells assessed as up regulation of Bcl-2 expression at 25 to 100 nM measured after 24 hrs by Western blot analysis; format: functional, cell-based; details: dose 25-100 nM
[23] = Resistance index, ratio of IC50 for human MCF7/TxR cells to IC50 for human MCF7 cells; format: functional
HT-29 [24] = test: Cell cycle arrest in human HT-29 cells assessed as effect on cdc25 expression at 25 to 100 nM measured after 24 hrs by Western blot analysis; format: functional, cell-based; details: dose 25-100 nM
[25] = Tmax in Sprague-Dawley rat at 10 mg/kg, iv by HPLC-MS/MS analysis; format: ADME, organism-based; details: in vivo
A549 = test: Cytotoxicity against human A549 cells assessed as reduction in cell viability measured after 24 hrs by MTT assay; details: A549, 24 h
HT-29 [26] = test: Induction of apoptosis in human HT-29 cells at 25 to 100 nM measured after 24 hrs by Annexin V-FITC/propidium iodide staining based flow cytometry; format: functional, cell-based; details: dose 25-100 nM
Tubulin (Homo sapiens) [27] = target: T1, Tubulin (Homo sapiens); test: Displacement of [3H] colchicine from tubulin (unknown origin) at 2.5 uM measured after 2 hrs by scintillation counting analysis relative to control; format: protein-complex assay
HT-29 [28] = test: Induction of apoptosis in human HT-29 cells assessed as up regulation of Bax expression at 25 to 100 nM measured after 24 hrs by Western blot analysis; format: functional, cell-based; details: dose 25-100 nM
[29] = Resistance index, ratio of IC50 for human A549/TxR cells to IC50 for human A549 cells; format: functional
[30] = Toxicity in human HT-29 cells xenografted BALB/c nude mouse assessed as body weight loss at 5 to 10 mg/kg, ip administered as 2 days interval for 3 weeks and measured 3 times a week during compound dosing; format: organism-based; details: in vivo, 504 h, dose 5-10 mg/kg
HT-29 [31] = test: Induction of apoptosis in human HT-29 cells assessed as down regulation of phosphorylated histone H3 expression at 25 to 100 nM measured after 24 hrs by Western blot analysis; format: functional, cell-based; details: dose 25-100 nM
[32] = Cmax in Sprague-Dawley rat at 10 mg/kg, iv by HPLC-MS/MS analysis; format: ADME, organism-based; set-up: dose 10 mg/kg, route iv; details: in vivo
HT-29 [33] = test: Induction of apoptosis in human HT-29 cells assessed as increase in PARP expression at 25 to 100 nM measured after 24 hrs by Western blot analysis; format: functional, cell-based; details: dose 25-100 nM

inhibition (Tubulin (Homo sapiens) [2]): Active | t1/2 [7]: 104 min | AUC [15]: 5670 µg/L.hr | inhibition (Tubulin (Homo sapiens) [21]): Active | Tmax [25]: 8.4 min | inhibition (Tubulin (Homo sapiens) [27]): 77.6% | Cmax [32]: 6880 ng/mL
Compound: COC(=O)c1cc2c(cc1Nc1cc(OC)c(OC)c(OC)c1)OCCO2
Activity (HT-29 [1]): Dde | inhibition (HUVEC): Active | inhibition (HT-29 [3]): Active | Activity (HT-29 [4]): Dde | Activity (HT-29 [5]): Dde | IC50 (HT-29 [6]): 0.023 µM | IC50 (HeLa): 0.035 µM | Activity (HT-29 [8]): Active | Activity (HT-29 [9]): 87.5% | Activity (HT-29 [10]): Active | Activity (HT-29 [11]): Dde | Activity [12]: Non-Toxic | Activity (HT-29 [13]): Active | IC50 [14]: 0.18 µM | Activity [16]: Non-Toxic | Activity [17]: Non-Toxic | Activity (HT-29 [18]): Active | Activity (HT-29 [19]): 75.5% | TGI (HT-29 [20]): Dde | Activity (HT-29 [22]): Active | Ratio IC50 [23]: 1.3 | Activity (HT-29 [24]): Active | IC50 (A549): 0.24 µM | Activity (HT-29 [26]): Active | Activity (HT-29 [28]): Active | Ratio IC50 [29]: 1.2 | Activity [30]: Non-Toxic | Activity (HT-29 [31]): Active | Activity (HT-29 [33]): Active
